In series [1] the test system is bicistronic HCV replicon (replicon RNA, GenBank Accession No. AJ242654). In words: HCV Replicon Assay. Type of series: cell-based. The settings on record: Hepatitis C virus, 72 h, read-out: Replicon IC50. (Replicon systems follow genome replication, usually without infectious particles.)

For orientation: melting point means the temperature, or range, at which the solid turns liquid. The pIC50 is the IC50 on a negative log10 scale, so that one unit is a factor of ten.

pIC50: −log10 of the molar value.

In the case of `C[C@H](NS(=O)(=O)c1ccc(-c2c(C#N)c3ccc(C4CC4)cc3n2-c2ccccn2)nc1)C(F)(F)F` [compound 502, 6-[3-cyano-6-cyclopropyl-1-(pyridin-2-yl)-1H-indol-2-yl]-N-[(2S)-1,1,1-trifluoropropan-2-yl]pyridine-3-sulfonamide], the melting point fell in the range of 185 to 189 °C. Further, the negative logarithm of the IC50 (pIC50) in series [1] is > 6.30.

Compound `Cc1ccc2c(c1)c(C#N)c(-c1ccc(S(=O)(=O)N[C@@H](C)C(F)(F)F)cn1)n2-c1ccccn1` [compound 503, 6-[3-cyano-5-methyl-1-(pyridin-2-yl)-1H-indol-2-yl]-N-[(2S)-1,1,1-trifluoropropan-2-yl]pyridine-3-sulfonamide] registered a melting point of 165 to 167 °C. Moreover, in series [1], the pIC50 was 5.70 to 6.30.

Turning to `Cc1ccc2c(c1)c(C#N)c(-c1ccc(S(=O)(=O)NC(CF)CF)cn1)n2-c1ccccn1` [compound 504, 6-[3-cyano-5-methyl-1-(pyridin-2-yl)-1H-indol-2-yl]-N-(1,3-difluoropropan-2-yl)pyridine-3-sulfonamide], the melting point is 177 to 179 °C. Further, the pIC50 in series [1] was > 6.30.

As for `Cc1cc2c(C#N)c(-c3ccc(S(=O)(=O)NC(CF)CF)cn3)n(C3CCC3)c2cc1Cl` [compound 505, 6-(6-chloro-3-cyano-1-cyclobutyl-5-methyl-1H-indol-2-yl)-N-(1,3-difluoropropan-2-yl)pyridine-3-sulfonamide], the melting point lay within 195 to 196 °C. Further, in series [1], the pIC50 is > 6.30.

`Cc1cc2c(C#N)c(-c3ccc(S(=O)(=O)N[C@@H](C)C(F)(F)F)cn3)n(C3CCC3)c2cc1Cl` [compound 506, 6-(6-chloro-3-cyano-1-cyclobutyl-5-methyl-1H-indol-2-yl)-N-[(2S)-1,1,1-trifluoropropan-2-yl]pyridine-3-sulfonamide] showed a melting point of 198 to 198.5 °C. In addition, the pIC50 in series [1] is > 6.30.

With `Cc1cc2c(C#N)c(-c3ncc(S(=O)(=O)NC(C)C)cn3)n(C3CCC3)c2cc1Cl` [compound 507, 2-(6-chloro-3-cyano-1-cyclobutyl-5-methyl-1H-indol-2-yl)-N-(propan-2-yl)pyrimidine-5-sulfonamide], the melting point fell in the range of 217 to 218 °C. Further, the negative-log IC50 (pIC50) in series [1] was 5.70 to 6.30.

On to `Cc1c(F)cc2c(C#N)c(-c3ccc(S(=O)(=O)N[C@@H](C)C(F)(F)F)cn3)n(C3CCCC3)c2c1F` [compound 508, 6-(3-cyano-1-cyclopentyl-5,7-difluoro-6-methyl-1H-indol-2-yl)-N-[(2S)-1,1,1-trifluoropropan-2-yl]pyridine-3-sulfonamide], for which the melting point was in the range of 215 to 219 °C. In addition, in series [1], the negative logarithm of the IC50 (pIC50) is > 6.30.

`Cc1c(F)cc2c(C#N)c(-c3ccc(S(=O)(=O)NC(CF)CF)cn3)n(C3CCCC3)c2c1F` [compound 509, 6-(3-cyano-1-cyclopentyl-5,7-difluoro-6-methyl-1H-indol-2-yl)-N-(1,3-difluoropropan-2-yl)pyridine-3-sulfonamide]: the melting point lay in the range of 199 to 203 °C. The pIC50 in series [1] is > 6.30.

Consider `Cc1cc2c(C#N)c(-c3ccc(S(=O)(=O)N[C@H](C)C(F)(F)F)cn3)n(C3CCC3)c2cc1Cl` [compound 510, 6-(6-chloro-3-cyano-1-cyclobutyl-5-methyl-1H-indol-2-yl)-N-[(2R)-1,1,1-trifluoropropan-2-yl]pyridine-3-sulfonamide], for which the melting point fell in the range of 200 to 200.5 °C. Also, the pIC50 in series [1] is 5.70 to 6.30.

`Cc1ccc2cc(-c3ccc(S(=O)(=O)NC(CF)CF)cn3)n(C3CCC3)c2c1` [compound 511, 6-(1-cyclobutyl-6-methyl-1H-indol-2-yl)-N-(1,3-difluoropropan-2-yl)pyridine-3-sulfonamide] gave a melting point of 137 to 139 °C. The negative logarithm of the IC50 (pIC50) in series [1] is > 6.30.

In turn, `C[C@H](NS(=O)(=O)c1ccc(-c2c(C#N)c3ccc(OC(F)F)cc3n2-c2ncccn2)nc1)C(F)(F)F` [compound 512, 6-[3-cyano-6-(difluoromethoxy)-1-(pyrimidin-2-yl)-1H-indol-2-yl]-N-[(2S)-1,1,1-trifluoropropan-2-yl]pyridine-3-sulfonamide] came in with a melting point of 186 to 189 °C. Further, in series [1], the pIC50 is > 6.30.

In turn, `Cc1ccc2c(C#N)c(-c3ccc(S(=O)(=O)NC(CF)CF)cn3)n(C3CCCCC3)c2c1` [compound 513, 6-(3-cyano-1-cyclohexyl-6-methyl-1H-indol-2-yl)-N-(1,3-difluoropropan-2-yl)pyridine-3-sulfonamide] had a melting point of 195 to 203 °C. Further, the negative logarithm of the IC50 (pIC50) in series [1] is > 6.30.

Turning to `C[C@@H](NS(=O)(=O)c1ccc(-c2c(C#N)c3ccc(Cl)cc3n2C2CCCCC2)nc1)C(F)(F)F` [compound 514, 6-(6-chloro-3-cyano-1-cyclohexyl-1H-indol-2-yl)-N-[(2R)-1,1,1-trifluoropropan-2-yl]pyridine-3-sulfonamide], the melting point is 218 to 223 °C. Further, in series [1], the pIC50 is > 6.30.

On to `C[C@H](NS(=O)(=O)c1ccc(-c2c(C#N)c3ccc(Cl)cc3n2C2CCCCC2)nc1)C(F)(F)F` [compound 515, 6-(6-chloro-3-cyano-1-cyclohexyl-1H-indol-2-yl)-N-[(2S)-1,1,1-trifluoropropan-2-yl]pyridine-3-sulfonamide], for which the melting point is 217 to 224 °C. In series [1], the negative logarithm of the IC50 (pIC50) was > 6.30.

With `C[C@H](NS(=O)(=O)c1cnc(-c2c(C#N)c3ccc(Cl)cc3n2C2CCCCC2)nc1)C(F)(F)F` [compound 516, 2-(6-chloro-3-cyano-1-cyclohexyl-1H-indol-2-yl)-N-[(2S)-1,1,1-trifluoropropan-2-yl]pyrimidine-5-sulfonamide], the melting point lay within 215 to 220 °C. Besides, in series [1], the pIC50 was > 6.30.

Regarding `N#Cc1c(-c2ncc(S(=O)(=O)NC(CF)CF)cn2)n(C2CCCCC2)c2cc(Cl)ccc12` [compound 517, 2-(6-chloro-3-cyano-1-cyclohexyl-1H-indol-2-yl)-N-(1,3-difluoropropan-2-yl)pyrimidine-5-sulfonamide], the melting point fell in the range of 228 to 234 °C. Also, in series [1], the pIC50 is > 6.30.

On to `COc1ccc2c(C#N)c(-c3ccc(S(=O)(=O)N[C@H](C)C(F)(F)F)cn3)n(C3CCCCC3)c2c1` [compound 518, 6-(3-cyano-1-cyclohexyl-6-methoxy-1H-indol-2-yl)-N-[(2R)-1,1,1-trifluoropropan-2-yl]-pyridine-3-sulfonamide], for which the melting point lay in the range of 198 to 204 °C. The pIC50 in series [1] is > 6.30.

Consider `COc1ccc2c(C#N)c(-c3ccc(S(=O)(=O)N[C@@H](C)C(F)(F)F)cn3)n(C3CCCCC3)c2c1` [compound 519, 6-(3-cyano-1-cyclohexyl-6-methoxy-1H-indol-2-yl)-N-[(2S)-1,1,1-trifluoropropan-2-yl]pyridine-3-sulfonamide], for which the melting point lay in the range of 197 to 204 °C. Besides, the pIC50 in series [1] was > 6.30.

`COc1ccc2c(C#N)c(-c3ncc(S(=O)(=O)NC(CF)CF)cn3)n(C3CCCCC3)c2c1` [compound 520, 2-(3-cyano-1-cyclohexyl-6-methoxy-1H-indol-2-yl)-N-(1,3-difluoropropan-2-yl)pyrimidine-5-sulfonamide]: the melting point is 209 to 215 °C. Moreover, the pIC50 in series [1] was 5.70 to 6.30.

Turning to `Cc1cc2c(C#N)c(-c3ccc(S(=O)(=O)NC(CF)CF)cn3)n(C3CCCC3)c2cc1Cl` [compound 521, 6-(6-chloro-3-cyano-1-cyclopentyl-5-methyl-1H-indol-2-yl)-N-(1,3-difluoropropan-2-yl)pyridine-3-sulfonamide], the melting point was 217.5 to 218 °C. Besides, the pIC50 in series [1] is > 6.30.

Turning to `Cc1cc2c(C#N)c(-c3ccc(S(=O)(=O)N[C@@H](C)C(F)(F)F)cn3)n(C3CCCC3)c2cc1Cl` [compound 522, 6-(6-chloro-3-cyano-1-cyclopentyl-5-methyl-1H-indol-2-yl)-N-[(2S)-1,1,1-trifluoropropan-2-yl]pyridine-3-sulfonamide], the melting point was in the range of 186 to 187 °C. In addition, in series [1], the negative-log IC50 (pIC50) was > 6.30.

With `Cc1cc2c(C#N)c(-c3ncc(S(=O)(=O)NC(C)C)cn3)n(C3CCCC3)c2cc1Cl` [compound 523, 2-(6-chloro-3-cyano-1-cyclopentyl-5-methyl-1H-indol-2-yl)-N-(propan-2-yl)pyrimidine-5-sulfonamide], the melting point lay in the range of 216 to 216.5 °C. For the same compound, the negative logarithm of the IC50 (pIC50) in series [1] was 5.70 to 6.30.

The compound `Cc1ccc2c(c1)c(C#N)c(-c1ncc(S(=O)(=O)NC(CF)CF)cn1)n2CC1CC1` [compound 524, 2-[3-cyano-1-(cyclopropylmethyl)-5-methyl-1H-indol-2-yl]-N-(1,3-difluoropropan-2-yl)pyrimidine-5-sulfonamide] had a melting point of 151 to 155 °C. The negative-log IC50 (pIC50) in series [1] is > 6.30.

On to `Cc1ccc2c(c1)c(C#N)c(-c1ccc(S(=O)(=O)N[C@@H](C)C3CC3)cn1)n2CC1CC1` [compound 525, 6-[3-cyano-1-(cyclopropylmethyl)-5-methyl-1H-indol-2-yl]-N-[(1S)-1-cyclopropylethyl]pyridine-3-sulfonamide], for which the melting point was in the range of 181 to 185 °C. Also, the pIC50 in series [1] is 5.70 to 6.30.

With `CC(C)NS(=O)(=O)c1cnc(-c2c(C#N)c3cc(F)ccc3n2C2CCCCC2)nc1` [compound 526, 2-(3-cyano-1-cyclohexyl-5-fluoro-1H-indol-2-yl)-N-(propan-2-yl)pyrimidine-5-sulfonamide], the melting point lay in the range of 223 to 225 °C. For the same compound, in series [1], the pIC50 is > 6.30.

`N#Cc1c(-c2ncc(S(=O)(=O)NC(CF)CF)cn2)n(C2CCCCC2)c2ccc(F)cc12` [compound 527, 2-(3-cyano-1-cyclohexyl-5-fluoro-1H-indol-2-yl)-N-(1,3-difluoropropan-2-yl)pyrimidine-5-sulfonamide] displayed a melting point of 250 to 253 °C. Also, in series [1], the negative-log IC50 (pIC50) was > 6.30.

Compound `C[C@H](NS(=O)(=O)c1cnc(-c2c(C#N)c3cc(F)ccc3n2C2CCCCC2)nc1)C1CC1` [compound 528, 2-(3-cyano-1-cyclohexyl-5-fluoro-1H-indol-2-yl)-N-[(1S)-1-cyclopropylethyl]pyrimidine-5-sulfonamide] came in with a melting point of 219 to 221 °C. In addition, the pIC50 in series [1] is > 6.30.

Source of the values: patent publication US8735414B2 (priority 2009, dated 2014).
